# In ChEMBL document CHEMBL1949531, “Synthesis and antiviral activities of novel gossypol derivatives” (Bioorg Med Chem Lett, 2012):
# Calls of active or inactive are those of the source. The calls are words filed in the database; no cut-off is given here.
# Tests used:
# [1] = system: Human immunodeficiency virus 1; assay: Antiviral activity against HIV1 3B infected human TZM-bl cells assessed as inhibition of viral replication by luciferase reporter assay; type: functional, organism-based
# [2] = Cytotoxicity in human TZM-bl cells by MTT assay; type: cell-based
# [3] = Selectivity index, ratio of CC50 for human TZM-bl cells to IC50 for HIV1 3B; type: functional
# Albumin = Albumin (Homo sapiens, UniProt P02768); assay: Binding affinity to human serum albumin by fluorescence quenching assay; type: ADME; conditions: isolated protein
# Albumin, sequence (P02768 whole entry): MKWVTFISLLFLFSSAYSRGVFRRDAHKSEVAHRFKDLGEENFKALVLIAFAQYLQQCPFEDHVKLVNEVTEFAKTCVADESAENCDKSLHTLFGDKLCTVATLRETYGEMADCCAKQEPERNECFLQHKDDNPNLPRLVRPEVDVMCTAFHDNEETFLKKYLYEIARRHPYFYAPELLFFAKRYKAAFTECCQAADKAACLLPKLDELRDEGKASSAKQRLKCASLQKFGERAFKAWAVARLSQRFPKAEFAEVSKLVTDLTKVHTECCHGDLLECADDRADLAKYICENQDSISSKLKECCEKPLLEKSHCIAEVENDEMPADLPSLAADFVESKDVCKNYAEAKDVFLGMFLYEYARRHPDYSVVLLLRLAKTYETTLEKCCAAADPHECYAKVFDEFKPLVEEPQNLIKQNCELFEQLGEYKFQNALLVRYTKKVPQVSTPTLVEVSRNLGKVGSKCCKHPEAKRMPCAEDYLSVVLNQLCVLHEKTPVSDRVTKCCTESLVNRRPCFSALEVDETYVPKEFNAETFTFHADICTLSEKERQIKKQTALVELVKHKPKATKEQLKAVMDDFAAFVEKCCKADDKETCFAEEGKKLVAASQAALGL
# Influenza A virus = assay: Antiviral activity against Influenza A virus (A/Vietnam/1194/2004(H5N1)) infected in MDCK cells assessed as inhibition of viral replication by plaque reduction assay; type: functional, organism-based
# [4] = Cytotoxicity against MDCK cells by MTT assay; type: cell-based, Canis lupus familiaris; conditions: dog
# [5] = Selectivity index, ratio of CC50 for MDCK cells to IC50 for Influenza A virus (A/Vietnam/1194/2004(H5N1)); type: functional
# [6] = target: Human immunodeficiency virus type 1 reverse transcriptase (Human immunodeficiency virus 1) (UniProt Q72547); assay: Inhibition of HIV1 reverse transcriptase activity at 20 ug/ml
# [7] = target: Human immunodeficiency virus type 1 reverse transcriptase (Human immunodeficiency virus 1) (UniProt Q72547); assay: Inhibition of HIV1 reverse transcriptase activity at 4 ug/ml
# [8] = target: Human immunodeficiency virus type 1 reverse transcriptase (Human immunodeficiency virus 1) (UniProt Q72547); assay: Inhibition of HIV1 reverse transcriptase activity at 0.8 ug/ml
# [9] = target: Human immunodeficiency virus type 1 reverse transcriptase (Human immunodeficiency virus 1) (UniProt Q72547); assay: Inhibition of HIV1 reverse transcriptase activity
# [10] = system: Human immunodeficiency virus 1; assay: Antiviral activity against HIV1 3B infected human TZM-bl cells assessed as inhibition of viral replication at 10 uM treated immediately after infection by luciferase reporter assay; type: functional, organism-based
# [11] = system: Human immunodeficiency virus 1; assay: Antiviral activity against HIV1 3B infected human TZM-bl cells assessed as inhibition of viral replication at 10 uM treated 2 hrs after viral infection by luciferase reporter assay; type: functional, organism-based
# [12] = target: Neuraminidase (Influenza A virus) (UniProt B4URF0); assay: Inhibition of Influenza A virus neuraminidase up to 10 uM
# Neuraminidase (Influenza A virus), sequence (B4URF0 as listed by the source): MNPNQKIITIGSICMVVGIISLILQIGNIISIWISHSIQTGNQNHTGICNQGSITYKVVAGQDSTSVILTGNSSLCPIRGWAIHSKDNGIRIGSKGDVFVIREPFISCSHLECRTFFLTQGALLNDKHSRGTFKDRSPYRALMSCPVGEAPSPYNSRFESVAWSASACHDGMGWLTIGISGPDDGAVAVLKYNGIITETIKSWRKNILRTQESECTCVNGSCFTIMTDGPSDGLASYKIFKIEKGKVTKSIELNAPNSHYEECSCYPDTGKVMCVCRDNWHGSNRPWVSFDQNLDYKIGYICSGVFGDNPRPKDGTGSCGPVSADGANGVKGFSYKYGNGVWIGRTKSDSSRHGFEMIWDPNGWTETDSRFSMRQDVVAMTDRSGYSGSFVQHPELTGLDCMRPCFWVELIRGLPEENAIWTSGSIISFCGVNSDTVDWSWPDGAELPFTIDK
# [13] = system: Human immunodeficiency virus 1; assay: Antiviral activity against HIV1 3B infected human TZM-bl cells assessed as inhibition of viral replication at 10 uM treated 8 hrs after viral infection by luciferase reporter assay; type: functional, organism-based
# [14] = Human immunodeficiency virus 1, 3B, TZM-bl, read-out: IC50
Compound,"IC50 [1, 14] [µM]",CC50 [2] [µM],Ratio CC50/IC50 [3],Ka (Albumin),IC50 (Influenza A virus) [µM],CC50 [4] [µM],Ratio CC50/IC50 [5],IC50 ([1]; tzm-bl),inhibition [6] [%],inhibition [7] [%],inhibition [8],inhibition [9],inhibition [10],inhibition [11],inhibition [12],inhibition [13]
Cc1cc2c(c(O)c1-c1c(C)cc3c(c1O)/C(=C/N[C@@H](CS)C(=O)[O-])C(=O)C(O)=C3C(C)C)/C(=C/N[C@@H](CS)C(=O)[O-])C(=O)C(O)=C2C(C)C.[Na+].[Na+],3.73,16.5,4.42,8.2016 ×10³ L/mol,43.4,> 43.4,>1,–,–,–,–,–,–,–,–,–
Cc1cc2c(c(O)c1-c1c(C)cc3c(c1O)/C(=C/N[C@@H](CC(C)C)C(=O)[O-])C(=O)C(O)=C3C(C)C)/C(=C/N[C@@H](CC(C)C)C(=O)[O-])C(=O)C(O)=C2C(C)C.[Na+].[Na+],1.37,42.8,31.26,1.3483 ×10⁴ L/mol,8.46,> 47.4,>5.6,–,–,–,–,–,–,–,–,–
Cc1cc2c(C(C)C)c(O)c(O)c(C=O)c2c(O)c1-c1c(C)cc2c(C(C)C)c(O)c(O)c(C=O)c2c1O [GOSSYPOL],–,9.76,–,2.3906 ×10⁵ L/mol,–,3.53,–,Not Active,73.2,76.3,inactive,Dose-dependent effect,–,–,–,–
Cc1cc2c(c(O)c1-c1c(C)cc3c(c1O)/C(=C/NC(C(=O)[O-])c1ccc(Cl)cc1)C(=O)C(O)=C3C(C)C)/C(=C/NC(C(=O)[O-])c1ccc(Cl)cc1)C(=O)C(O)=C2C(C)C.[Na+].[Na+] (stereo not drawn),1.28,21.9,17.12,1.2868 ×10⁴ L/mol,21.5,> 37.2,>1.73,–,–,–,–,–,–,–,–,–
CC[C@H](C)[C@H](N/C=C1\C(=O)C(O)=C(C(C)C)c2cc(C)c(-c3c(C)cc4c(c3O)/C(=C/N[C@H](C(=O)[O-])[C@@H](C)CC)C(=O)C(O)=C4C(C)C)c(O)c21)C(=O)[O-].[Na+].[Na+],1.12,64.5,57.57,5.3223 ×10⁴ L/mol,0.34,> 42.3,>124.41,–,–,–,–,–,Active,inactive,inactive,–
Cc1cc2c(c(O)c1-c1c(C)cc3c(c1O)/C(=C/N[C@@H](C)C(=O)[O-])C(=O)C(O)=C3C(C)C)/C(=C/N[C@@H](C)C(=O)[O-])C(=O)C(O)=C2C(C)C.[Na+].[Na+],1.22,56.2,46.09,1.0392 ×10⁵ L/mol,0.87,> 47.3,>54.41,–,–,–,–,–,Active,inactive,–,–
Cc1cc2c(c(O)c1-c1c(C)cc3c(c1O)/C(=C/N[C@@H](CO)C(=O)[O-])C(=O)C(O)=C3C(C)C)/C(=C/N[C@@H](CO)C(=O)[O-])C(=O)C(O)=C2C(C)C.[Na+].[Na+],2.88,68.3,23.72,5.7756 ×10⁴ L/mol,45.3,> 45.3,>1,–,–,–,–,–,–,–,–,–
Cc1cc2c(c(O)c1-c1c(C)cc3c(c1O)/C(=C/NC(C)(C)C(=O)[O-])C(=O)C(O)=C3C(C)C)/C(=C/NC(C)(C)C(=O)[O-])C(=O)C(O)=C2C(C)C.[Na+].[Na+],1.39,99,71.19,1.9125 ×10⁵ L/mol,1.05,> 45.5,>43.37,–,–,–,–,–,Active,inactive,–,–
Cc1cc2c(c(O)c1-c1c(C)cc3c(c1O)/C(=C/N[C@@H](Cc1c[nH]cn1)C(=O)[O-])C(=O)C(O)=C3C(C)C)/C(=C/N[C@@H](Cc1c[nH]cn1)C(=O)[O-])C(=O)C(O)=C2C(C)C.[Na+].[Na+],1.58,51.2,32.38,6.7205 ×10⁴ L/mol,41.2,> 41.2,>1,–,–,–,–,–,–,–,–,–
Cc1cc2c(c(O)c1-c1c(C)cc3c(c1O)/C(=C/N[C@@H](Cc1c[nH]c4ccccc14)C(=O)[O-])C(=O)C(O)=C3C(C)C)/C(=C/N[C@@H](Cc1c[nH]c3ccccc13)C(=O)[O-])C(=O)C(O)=C2C(C)C.[Na+].[Na+],0.99,48,48.43,9.2747 ×10⁴ L/mol,0.28,> 35.7,>127.46,–,–,–,–,–,Active,inactive,inactive,–
Cc1cc2c(c(O)c1-c1c(C)cc3c(c1O)/C(=C/N[C@@H](Cc1ccc(O)cc1)C(=O)[O-])C(=O)C(O)=C3C(C)C)/C(=C/N[C@@H](Cc1ccc(O)cc1)C(=O)[O-])C(=O)C(O)=C2C(C)C.[Na+].[Na+],1.62,54.8,33.81,7.5353 ×10⁴ L/mol,37.5,> 37.5,>1,–,–,–,–,–,–,–,–,–
Cc1cc2c(c(O)c1-c1c(C)cc3c(c1O)/C(=C/N[C@H](C(=O)[O-])C(C)C)C(=O)C(O)=C3C(C)C)/C(=C/N[C@H](C(=O)[O-])C(C)C)C(=O)C(O)=C2C(C)C.[Na+].[Na+],1.14,70.3,61.68,2.114 ×10⁵ L/mol,1.78,> 43.9,>24.64,–,–,–,–,–,Active,inactive,–,–
Cc1cc2c(c(O)c1-c1c(C)cc3c(c1O)/C(=C/NCCCCC(=O)[O-])C(=O)C(O)=C3C(C)C)/C(=C/NCCCCC(=O)[O-])C(=O)C(O)=C2C(C)C.[Na+].[Na+],1.71,32.9,19.25,2.4288 ×10⁴ L/mol,19.5,> 43.8,>2.25,–,–,–,–,–,–,–,–,–
Cc1cc2c(c(O)c1-c1c(C)cc3c(c1O)/C(=C/NCCCCCC(=O)[O-])C(=O)C(O)=C3C(C)C)/C(=C/NCCCCCC(=O)[O-])C(=O)C(O)=C2C(C)C.[Na+].[Na+],2.09,31.8,15.19,3.2203 ×10⁴ L/mol,42.3,> 42.3,>1,–,–,–,–,–,–,–,–,–
Cc1cn([C@H]2C[C@H](N=[N+]=[N-])[C@@H](CO)O2)c(=O)[nH]c1=O [ZIDOVUDINE],0.0028,–,–,–,–,–,–,–,–,–,–,–,–,–,–,Active
Cc1cc2c(c(O)c1-c1c(C)cc3c(c1O)/C(=C/N[C@H](C(=O)[O-])c1ccccc1)C(=O)C(O)=C3C(C)C)/C(=C/N[C@H](C(=O)[O-])c1ccccc1)C(=O)C(O)=C2C(C)C.[Na+].[Na+],1.45,29.9,20.64,1.4015 ×10⁴ L/mol,8.06,> 40.3,>5,–,–,–,–,–,–,–,–,–
enfuvirtide,0.0988,–,–,–,–,–,–,–,–,–,–,–,Active,inactive,–,–
